Assay results published in ChEMBL document CHEMBL1201862, “PubChem BioAssay data set” (2004).
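A five-concentration, 48-hour dose response in 96-well plates underlies each endpoint, interpolated linearly between surrounding concentrations. GI50 marks 50% less growth.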 Activity calls are given as the source filed them. Cut-off read from the data, not from the text of the source: active = GI50 up to about 1.1 µM and inactive = higher.

Legend:
Assay in all cases: inhibition of tumour cell growth, NCI panel, 48 h
NCI-H226 = test system: NCI-H226
HL-60 = test system: HL-60
HCT-116 = test system: HCT-116
786-0 = test system: 786-0
SW-620 = test system: SW-620
Malme-3M = test system: Malme-3M
EKVX = test system: EKVX
COLO 205 = test system: COLO 205
OVCAR-8 = test system: OVCAR-8
PC-3 = test system: PC-3
IGROV-1 = test system: IGROV-1
SK-OV-3 = test system: SK-OV-3
NCI-H23 = test system: NCI-H23
BT-549 = test system: BT-549
OVCAR-5 = test system: OVCAR-5
UACC-62 = test system: UACC-62
LOX IMVI = test system: LOX IMVI
CAKI-1 = test system: CAKI-1
OVCAR-4 = test system: OVCAR-4

Row | Compound | GI50 (NCI-H226) | GI50 (HL-60) | GI50 (HCT-116) | GI50 (786-0) | GI50 (SW-620) | GI50 (Malme-3M) | GI50 (EKVX) | GI50 (COLO 205) | GI50 (OVCAR-8) | GI50 (PC-3) | GI50 (IGROV-1) | GI50 (SK-OV-3) | GI50 (NCI-H23) | GI50 (BT-549) | GI50 (OVCAR-5) | GI50 (UACC-62) | GI50 (LOX IMVI) | GI50 (CAKI-1) | GI50 (OVCAR-4)
1 | O=C(Cc1ccccc1)N/N=C(/CCN1CCCC1)CC(c1ccccc1)c1c(O)c2ccccc2oc1=O (stereo not given) | > 100 µM (inactive) | 39.8 µM (inactive) | 80.2 µM (inactive) | > 100 µM (inactive) | > 100 µM (inactive) | 57.4 µM (inactive) | > 100 µM (inactive) | 23.9 µM (inactive) | > 100 µM (inactive) | > 100 µM (inactive) | > 100 µM (inactive) | > 100 µM (inactive) | 55.7 µM (inactive) | 83.4 µM (inactive) | > 100 µM (inactive) | 63.7 µM (inactive) | 17.3 µM (inactive) | > 100 µM (inactive) | > 100 µM (inactive)
2 | O=c1c2cccnc2[nH]c2ccc3scnc3c12 | 5.97 µM (inactive) | 4.86 µM (inactive) | 3.3 µM (inactive) | 5.58 µM (inactive) | > 10 µM (inactive) | > 10 µM (inactive) | > 10 µM (inactive) | 5.12 µM (inactive) | > 10 µM (inactive) | > 10 µM (inactive) | 4.81 µM (inactive) | > 10 µM (inactive) | > 10 µM (inactive) | > 10 µM (inactive) | > 10 µM (inactive) | > 10 µM (inactive) | 3.36 µM (inactive) | > 10 µM (inactive) | 9.35 µM (inactive)
3 | O=C1OCC(c2ccc(Cl)cc2)=C1Cl | 55.8 µM (inactive) | 19.8 µM (inactive) | 13.9 µM (inactive) | 17.7 µM (inactive) | 25.4 µM (inactive) | 15.6 µM (inactive) | 28.8 µM (inactive) | 24.4 µM (inactive) | 25.5 µM (inactive) | 22.1 µM (inactive) | < 0.01 µM (active) | > 100 µM (inactive) | 19.1 µM (inactive) | 29.2 µM (inactive) | 22.3 µM (inactive) | 18.7 µM (inactive) | 23.2 µM (inactive) | 30.5 µM (inactive) | 44.8 µM (inactive)
4 | O=S(=O)(N/C(=N\O)Nc1ccc(Cl)cc1)c1cc(C(F)(F)F)cc(C(F)(F)F)c1 | 19.1 µM (inactive) | 24.3 µM (inactive) | 17.5 µM (inactive) | 19.3 µM (inactive) | 34.3 µM (inactive) | 18 µM (inactive) | 16.6 µM (inactive) | 18.6 µM (inactive) | 18.7 µM (inactive) | 17.5 µM (inactive) | 16.9 µM (inactive) | 18.6 µM (inactive) | 19.9 µM (inactive) | 18.7 µM (inactive) | 16.3 µM (inactive) | 16.7 µM (inactive) | 18.5 µM (inactive) | 16.9 µM (inactive) | 15 µM (inactive)
5 | Nc1ncnc2nc(N3CCN(CCO)CC3)[nH]c12 | > 100 µM (inactive) | > 100 µM (inactive) | > 100 µM (inactive) | > 100 µM (inactive) | > 100 µM (inactive) | > 100 µM (inactive) | > 100 µM (inactive) | > 100 µM (inactive) | > 100 µM (inactive) | > 100 µM (inactive) | > 100 µM (inactive) | > 100 µM (inactive) | > 100 µM (inactive) | > 100 µM (inactive) | > 100 µM (inactive) | > 100 µM (inactive) | > 100 µM (inactive) | > 100 µM (inactive) | > 100 µM (inactive)
6 | CN(C)c1ccc(/C=C(\NC(=O)c2ccccc2)C(=O)Nc2cccc(C(=O)NCCCO)c2)cc1 | > 100 µM (inactive) | > 100 µM (inactive) | > 100 µM (inactive) | > 100 µM (inactive) | > 100 µM (inactive) | > 100 µM (inactive) | > 100 µM (inactive) | > 100 µM (inactive) | > 100 µM (inactive) | > 100 µM (inactive) | > 100 µM (inactive) | > 100 µM (inactive) | > 100 µM (inactive) | > 100 µM (inactive) | > 100 µM (inactive) | > 100 µM (inactive) | > 100 µM (inactive) | > 100 µM (inactive) | > 100 µM (inactive)
7 | Cc1ccc(C(=O)Nc2ccc(CP(=O)(O)O)cc2CP(=O)(O)O)cc1NC(=O)c1cccc(N)c1 | > 100 µM (inactive) | > 100 µM (inactive) | > 100 µM (inactive) | > 100 µM (inactive) | > 100 µM (inactive) | > 100 µM (inactive) | > 100 µM (inactive) | > 100 µM (inactive) | > 100 µM (inactive) | > 100 µM (inactive) | > 100 µM (inactive) | > 100 µM (inactive) | > 100 µM (inactive) | > 100 µM (inactive) | > 100 µM (inactive) | > 100 µM (inactive) | > 100 µM (inactive) | > 100 µM (inactive) | > 100 µM (inactive)
8 | Cc1cc2oc(=O)c(Cl)c(Cl)c2c(C)c1Cl | 17.3 µM (inactive) | 1.91 µM (inactive) | 3.78 µM (inactive) | 3.15 µM (inactive) | 1.37 µM (inactive) | 10.8 µM (inactive) | 14.8 µM (inactive) | 2.56 µM (inactive) | 3.28 µM (inactive) | 11.4 µM (inactive) | 4.3 µM (inactive) | 14.4 µM (inactive) | 6.28 µM (inactive) | 7.26 µM (inactive) | 12.1 µM (inactive) | 6.71 µM (inactive) | 2.76 µM (inactive) | 4.74 µM (inactive) | 4.28 µM (inactive)
9 | [N-]=[N+]=Nc1ccc(NCCCCCC(=O)ON2C(=O)CCC2=O)c([N+](=O)[O-])c1 | > 100 µM (inactive) | 32.5 µM (inactive) | 39.6 µM (inactive) | > 100 µM (inactive) | 60.1 µM (inactive) | 27.9 µM (inactive) | 98.9 µM (inactive) | > 100 µM (inactive) | 60.3 µM (inactive) | 28.5 µM (inactive) | > 100 µM (inactive) | > 100 µM (inactive) | 66.7 µM (inactive) | > 100 µM (inactive) | 44.2 µM (inactive) | 33.1 µM (inactive) | 48.8 µM (inactive) | 34.4 µM (inactive) | > 100 µM (inactive)
10 | Cc1coc2c1C(=O)C(=O)c1c-2ccc2c1CCCC2(C)C [TANSHINONE IIA] | 2.29 µM (inactive) | 1.07 µM (active) | 1.55 µM (inactive) | 1.87 µM (inactive) | 2.42 µM (inactive) | 0.508 µM (active) | 30.3 µM (inactive) | 8.07 µM (inactive) | 6.35 µM (inactive) | 2.34 µM (inactive) | 2.04 µM (inactive) | 21.3 µM (inactive) | 1.14 µM (inactive) | 2.1 µM (inactive) | 9.42 µM (inactive) | 1.63 µM (inactive) | 0.342 µM (active) | 1.95 µM (inactive) | 10.6 µM (inactive)
11 | COc1ccc(Cl)cc1NC(=O)c1cccc([N+](=O)[O-])c1O | 15 µM (inactive) | 19.1 µM (inactive) | 16.6 µM (inactive) | 16.8 µM (inactive) | 22.7 µM (inactive) | 4.97 µM (inactive) | 9.82 µM (inactive) | 13.5 µM (inactive) | 17.8 µM (inactive) | 9.14 µM (inactive) | 8.34 µM (inactive) | 24.7 µM (inactive) | 10.4 µM (inactive) | 4.37 µM (inactive) | 27.8 µM (inactive) | 6.82 µM (inactive) | 13.7 µM (inactive) | 16.2 µM (inactive) | 10.2 µM (inactive)
12 | O=C(c1cc(Br)ccc1O)c1cc(Br)ccc1O | 20 µM (inactive) | 22.4 µM (inactive) | 15.9 µM (inactive) | 16.9 µM (inactive) | 16.4 µM (inactive) | 17.3 µM (inactive) | 15.6 µM (inactive) | 17.4 µM (inactive) | 16.9 µM (inactive) | 17.1 µM (inactive) | 14.3 µM (inactive) | 19.4 µM (inactive) | 17.1 µM (inactive) | 17.8 µM (inactive) | 17.4 µM (inactive) | 13.1 µM (inactive) | 18.2 µM (inactive) | 18.2 µM (inactive) | 16.6 µM (inactive)
13 | N=C(N)SC(c1ccccc1)c1ccccc1 | 33.8 µM (inactive) | 17.1 µM (inactive) | 12.2 µM (inactive) | 12.6 µM (inactive) | 16.8 µM (inactive) | 18.6 µM (inactive) | 15 µM (inactive) | 21.8 µM (inactive) | 15.3 µM (inactive) | 14.3 µM (inactive) | 18.5 µM (inactive) | 32.3 µM (inactive) | 13 µM (inactive) | 17.6 µM (inactive) | 14.2 µM (inactive) | 16 µM (inactive) | 15.2 µM (inactive) | 13.5 µM (inactive) | 18.3 µM (inactive)
14 | N[C@H](C(=O)O)[C@@H]1CC(Br)=NO1 | > 96.6 µM (inactive) | > 48.4 µM (inactive) | 5.6 µM (inactive) | 13 µM (inactive) | 5.87 µM (inactive) | > 25.1 µM (inactive) | 10.9 µM (inactive) | 33.3 µM (inactive) | > 25 µM (inactive) | 23.6 µM (inactive) | 19 µM (inactive) | 8.05 µM (inactive) | > 35.7 µM (inactive) | > 27 µM (inactive) | 16.8 µM (inactive) | 27.7 µM (inactive) | > 100 µM (inactive) | 18.4 µM (inactive) | 21.9 µM (inactive)
15 | COc1nc2c(c(=O)n1C)NC(C(O)C(O)CO)C=N2 (stereo not given) | > 10 µM (inactive) | > 10 µM (inactive) | > 10 µM (inactive) | > 10 µM (inactive) | > 10 µM (inactive) | > 10 µM (inactive) | > 10 µM (inactive) | > 10 µM (inactive) | > 10 µM (inactive) | > 10 µM (inactive) | > 10 µM (inactive) | > 10 µM (inactive) | > 10 µM (inactive) | > 10 µM (inactive) | > 10 µM (inactive) | > 10 µM (inactive) | > 10 µM (inactive) | > 10 µM (inactive) | > 10 µM (inactive)
